Our source for the IC50 values is US20150353495A1 (PORTOLA PHARMACEUTICALS, INC., priority 2010, published 2015).

Holding throughout (assay type): biochemical
Experiment [1] deals with T1, JAK1 (Homo sapiens, UniProt P23458).
T1 construct: 5 μl of catalytic domain recombinant Kinase enzyme+Tyr peptide substrate (Invitrogen, CA); purchased Invitrogen
The experiment can be described thus: Z'-LYTE kinase assay JAK1. The gist of the method: (§1)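 Read-out is FRET fluorescence between coumarin and fluorescein on a Tyr6 peptide, lost when the development protease cleaves unphosphorylated substrate. Kinase reaction used recombinant catalytic domain with ATP, 1 h at room temperature, 1% DMSO.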

The target in experiment [2] is T2, JAK2 (Homo sapiens, UniProt O60674).
T2 construct: 5 μl of catalytic domain recombinant Kinase enzyme+Tyr peptide substrate (Invitrogen, CA); purchased Invitrogen
T2 sequence (O60674 849-1124 limits assumed): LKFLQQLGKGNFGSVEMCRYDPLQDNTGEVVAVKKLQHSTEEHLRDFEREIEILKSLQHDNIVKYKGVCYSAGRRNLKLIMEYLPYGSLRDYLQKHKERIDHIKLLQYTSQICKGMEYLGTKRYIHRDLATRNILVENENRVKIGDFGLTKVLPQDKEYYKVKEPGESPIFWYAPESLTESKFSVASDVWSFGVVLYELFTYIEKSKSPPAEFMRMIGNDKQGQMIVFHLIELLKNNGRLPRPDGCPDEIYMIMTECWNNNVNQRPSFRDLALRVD
Put plainly: Z'-LYTE kinase assay JAK2. The method, boiled down: as §1

Experiment [3] deals with T3, JAK3 (Homo sapiens, UniProt P52333).
T3 construct: 5 μl of catalytic domain recombinant Kinase enzyme+Tyr peptide substrate (Invitrogen, CA); purchased Invitrogen
T3 sequence (P52333 822-1111 limits assumed): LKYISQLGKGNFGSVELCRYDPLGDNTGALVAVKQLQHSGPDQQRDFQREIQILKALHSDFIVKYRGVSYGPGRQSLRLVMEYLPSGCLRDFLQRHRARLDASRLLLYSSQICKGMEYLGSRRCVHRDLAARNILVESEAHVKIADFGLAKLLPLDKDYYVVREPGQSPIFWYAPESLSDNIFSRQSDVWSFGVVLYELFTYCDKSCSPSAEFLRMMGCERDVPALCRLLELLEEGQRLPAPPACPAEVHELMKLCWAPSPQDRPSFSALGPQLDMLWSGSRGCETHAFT
The experiment can be described thus: Z'-LYTE kinase assay JAK3. The gist of the method:
as §1

T1 sequence (P23458 875-1153 limits assumed): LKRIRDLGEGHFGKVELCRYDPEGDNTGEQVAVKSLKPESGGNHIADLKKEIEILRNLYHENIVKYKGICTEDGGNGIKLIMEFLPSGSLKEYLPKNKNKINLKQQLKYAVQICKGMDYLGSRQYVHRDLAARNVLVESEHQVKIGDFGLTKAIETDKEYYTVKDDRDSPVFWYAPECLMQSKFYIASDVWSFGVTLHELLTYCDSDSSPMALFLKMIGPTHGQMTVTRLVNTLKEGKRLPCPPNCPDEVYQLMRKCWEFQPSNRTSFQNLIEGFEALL

As a reminder, the IC50 is the midpoint of a concentration-inhibition curve. Low readings indicate higher potency, high ones lower potency. With `NC(=O)c1cnc(Nc2ccc(OCC(=O)N3CCOCC3)cc2)cc1NC1(c2ccccc2)CC1` [Example 133, 6-(4-(2-morpholino-2-oxoethoxy)phenylamino)-4-(1-phenylcyclopropylamino)nicotinamide], the half-inhibitory concentration (IC50) is greater than 1000 nM in experiment [1], 100 to 1000 nM in experiment [2] and 10 to 100 nM in experiment [3].
The like results for `CC(=O)Nc1ccc(Nc2cc(NCc3cccc4cc[nH]c34)c(C(N)=O)cn2)cc1` [Example 473, 4-((1H-indol-7-yl)methylamino)-6-(4-acetamidophenylamino)nicotinamide] were, in that order, 100 to 1000 nM, 100 to 1000 nM and 10 to 100 nM.
The like results for `CS(=O)(=O)Cc1ccc(Nc2cc(NCc3ccccc3)c(C(N)=O)cn2)cc1` [Example 347, 4-(benzylamino)-6-(4-(methylsulfonylmethyl)phenylamino)nicotinamide] were, in that order, 100 to 1000 nM, 100 to 1000 nM and 1 to 10 nM.
With `NC(=O)c1cnc(Nc2ccc(-c3nc[nH]n3)cc2)cc1NCc1ccccc1` [Example 281, 6-(4-(1H-1,2,4-triazol-3-yl)phenylamino)-4-(benzylamino)nicotinamide], the results for the IC50 in experiment [1], in experiment [2] and in experiment [3] were 100 to 1000 nM, 100 to 1000 nM and 10 to 100 nM, respectively.
With `CN(C)C(=O)c1cc(Nc2cc(NCc3ccccc3)c(C(N)=O)cn2)ccc1N(C)C` [Example 440, 4-(benzylamino)-6-(4-(dimethylamino)-3-(dimethylcarbamoyl)phenylamino)nicotinamide], the IC50 in experiment [1] fell in the range of 100 to 1000 nM; in experiment [2] it was 100 to 1000 nM; in experiment [3] it was 10 to 100 nM.
With `CC(C)c1cccc(Nc2cc(NCc3ccccc3F)c(C(N)=O)cn2)c1` [Example 162, 4-(2-fluorobenzylamino)-6-(3-isopropylphenylamino)nicotinamide], the IC50 in experiment [1] was greater than 1000 nM; in experiment [2], greater than 1000 nM; in experiment [3], 100 to 1000 nM.
As for `N#CCc1cccc(Nc2cc(NCc3ccccc3)c(C(N)=O)cn2)c1` [Example 387], the values for the IC50 in experiment [1], in experiment [2] and in experiment [3] were 100 to 1000 nM, 100 to 1000 nM and 1 to 10 nM, respectively.
On to `COC(=O)N(C)c1ccc(Nc2cc(NCc3cccc4ccsc34)c(C(N)=O)cn2)cc1` [Example 465, methyl 4-(4-(benzo[b]thiophen-7-ylmethylamino)-5-carbamoylpyridin-2-ylamino)phenyl(methyl)carbamate], for which the results for the IC50 in experiment [1], in experiment [2] and in experiment [3] were greater than 1000 nM, 100 to 1000 nM and 1 to 10 nM, respectively.
Turning to `COC[C@@H](Nc1cc(Nc2cccc(N3CCOCC3)c2)ncc1C(N)=O)c1ccccc1` [Example 261, (S)-4-(2-methoxy-1-phenylethylamino)-6-(3-morpholinophenylamino)nicotinamide], the IC50 is greater than 1000 nM in experiment [1], 100 to 1000 nM in experiment [2] and 10 to 100 nM in experiment [3].
On the same counts, the results for `CC(=O)N1CCC[C@H](CNc2cc(Nc3ccc(NS(=O)(=O)N(C)C)cc3)ncc2C(N)=O)C1` [Example 269, (R)-4-((1-acetylpiperidin-3-yl)methylamino)-6-(4-(N,N-dimethylsulfamoylamino)phenylamino)nicotinamide] are 100 to 1000 nM, 100 to 1000 nM and 10 to 100 nM.
The like results for `CN(C)C(=O)C1CCN(c2ccc(Nc3cc(NCc4cccc(-c5ccncc5)c4)c(C(N)=O)cn3)cc2)CC1` [Example 419, 6-(4-(4-(dimethylcarbamoyl)piperidin-1-yl)phenylamino)-4-(3-(pyridine-4-yl)benzylamino)nicotinamide] were, in that order, greater than 1000 nM, 100 to 1000 nM and 1 to 10 nM.
The like results for `COc1ccc(Nc2cc(NCc3ccncn3)c(C(N)=O)cn2)cc1` [Example 298, 6-(4-methoxyphenylamino)-4-(pyrimidin-4-ylmethylamino)nicotinamide] were, in that order, greater than 1000 nM, greater than 1000 nM and 100 to 1000 nM.
In the case of `CN(C)S(=O)(=O)c1ccc(Nc2cc(NCc3cc(F)ccc3F)c(C(N)=O)cn2)cc1` [Example 98, 4-(2,5-difluorobenzylamino)-6-(4-(N,N-dimethylsulfamoyl)phenylamino)nicotinamide], the results for the IC50 in experiment [1], in experiment [2] and in experiment [3] were greater than 1000 nM, 100 to 1000 nM and 10 to 100 nM, respectively.
On the same counts, the results for `CS(=O)(=O)NCc1ccc(Nc2cc(NCc3cccc4ccsc34)c(C(N)=O)cn2)cc1` [Example 353, 4-(benzo[b]thiophen-7-ylmethylamino)-6-(4-(methylsulfonamidomethyl)phenylamino)nicotinamide] are 100 to 1000 nM, 10 to 100 nM and 1 to 10 nM.
On the same counts, the results for `COc1ccc(Nc2cc(NCc3ncccn3)c(C(N)=O)cn2)cc1` [Example 300, 6-(4-methoxyphenylamino)-4-(pyrimidin-2-ylmethylamino)nicotinamide] are greater than 1000 nM, greater than 1000 nM and 100 to 1000 nM.
On the same counts, the results for `COc1cc(Nc2cc(NCc3ccccc3)c(C(N)=O)cn2)cc(OC)c1OC` [Example 280, 4-(benzylamino)-6-(3,4,5-trimethoxyphenylamino)nicotinamide] are greater than 1000 nM, 100 to 1000 nM and 10 to 100 nM.
Regarding `CN(C)S(=O)(=O)N1CC(c2ccc(Nc3cc(NCc4ccccc4)c(C(N)=O)cn3)cc2)C1` [Example 339, 4-(benzylamino)-6-(4-(1-(N,N-dimethylsulfamoyl)azetidin-3-yl)phenylamino)nicotinamide], the half-maximal inhibitory concentration (IC50) is greater than 1000 nM in experiment [1], greater than 1000 nM in experiment [2] and 10 to 100 nM in experiment [3].
With `NC(=O)c1cnc(Nc2ccc3cnccc3c2)cc1NCc1ccccc1` [Example 88, 4-(benzylamino)-6-(isoquinolin-6-ylamino)nicotinamide], the IC50 was greater than 1000 nM in experiment [1], greater than 1000 nM in experiment [2] and 10 to 100 nM in experiment [3].
Take `CCC(=O)N1CCC(c2ccc(Nc3cc(NCc4cccc(-c5cccnc5)c4)c(C(N)=O)cn3)cc2)CC1` [Example 416, 6-(4-(1-propionylpiperidin-4-yl)phenylamino)-4-(3-(pyridine-3-yl)benzylamino)nicotinamide]: the IC50 is greater than 1000 nM in experiment [1], greater than 1000 nM in experiment [2] and 1 to 10 nM in experiment [3].
`COc1ccc(Nc2cc(N[C@H]3CCCN(C(C)=O)C3)c(C(N)=O)cn2)cc1` [Example 36, (S)-4-(1-acetylpiperidin-3-ylamino)-6-(4-methoxyphenylamino)nicotinamide]: the IC50 in experiment [1], in experiment [2] and in experiment [3] was greater than 1000 nM each time.
For the molecule `CCC(=O)N1CC(c2ccc(Nc3cc(NCc4cccc5ccsc45)c(C(N)=O)cn3)cc2)C1` [Example 491, 4-(benzo[b]thiophen-7-ylmethylamino)-6-(4-(1-propionylazetidin-3-yl)phenylamino)nicotinamide], the results for the IC50 in experiment [1], in experiment [2] and in experiment [3] were 100 to 1000 nM, 10 to 100 nM and 1 to 10 nM, respectively.
On the same counts, the results for `NC(=O)c1cnc(Nc2ccc(C3CCOCC3)cc2)cc1NCc1ccccn1` [Example 174, 4-(pyridin-2-ylmethylamino)-6-(4-(tetrahydro-2H-pyran-4-yl)phenylamino)nicotinamide] are greater than 1000 nM, 100 to 1000 nM and 10 to 100 nM.
